Where a name gives a salt, the structure may show the parent alone.
What was measured:
5-HT1B = 5-HT1B (Homo sapiens, UniProt P28222); conditions: serotonin receptor agonist; cited from earlier work
[1] = system: mice with T9 contusion type of injury; assay: Basso Mouse Scale (BMS) open-field locomotion after T9 contusion spinal cord injury; format: in vivo
Description: Adult female C57BL/6J mice (8-10 weeks-old; Charles River) were used in this study. The mice were housed three to four per cage and were maintained on a 12-hour light/dark cycle with food and water ad libitum for the duration of the study.
A moderate-severe contusion-type of injury was performed on adult C57BL/6 female mice (10-12 weeks) with an Infinite Horizon Impactor (PSI)^30. All surgeries were performed under aseptic conditions. Briefly, under deep anesthesia with Ketamine and Xylazine (120 mg/kg and 16 mg/kg respectively, i.p.) mice received a dorsal laminectomy at the level of 9th thoracic vertebra (T9). After securing the lateral processes of the 8th thoracic vertebra (T8) and 10th thoracic vertebra (T10) with a stainless-steel impactor tip, a controlled force-defined impact at 75 kdyne was delivered to the exposed spinal cord^28,30. Then, muscle and skin were closed with 4.0 polyglycolic acid (PGA) absorbable sutures (Safil, G1048213). In this study, mice were excluded when the actual displacement value was outside the interval 500-700 μm or if the actual force after impact was >2SD 75 Kdyne. Immediately after injury, mice were injected subcutaneously with 0.5 ml of sterile saline and then daily for 5 days. During this experiment, mice underwent gentle bladder expression twice daily until they were voiding on their own. Weight was monitored daily until 15 days-post-injury (dpi) and then weekly for the duration of the study and a high caloric pellet (Supreme Mini-Treats™ S05478 and S05472) was provided as a dietary supplement since a 10% weight loss was typically observed in this SCI model upon injury.
The Eletriptan Hbr (Sigma-Aldrich, PZ0011) dosage used were equivalent to the human market dose^31 and all treatment dosages were aliquoted using a coded system to maintain double-blinded measures. This code was only unveiled at the end of all behavioural tests. Mice were randomly distributed to each experimental group (SCI+Vehicle and SCI+Eletriptan Hbr). Vehicle and Eletriptan Hbr were administered via intraperitoneal injection (i.p.), beginning 1 hour after injury (hpi) and then daily until 15 dpi.
Open-field locomotion was assessed with the BMS rating system^30,32. The open-field used was a round platform with 85 cm in diameter and 30.5 cm high, located in a quiet testing room with normal lighting. The mice were habituated to the testing platform for 5 minutes daily for 2 weeks before surgery. The BMS testing (BMS scoring and subscoring) was performed as previously described^28,30. Briefly, mice were tested before surgery, to obtain baseline pre-operation locomotion values, where it is expected a maximum S score value. To determine the functional recovery after treatment the BMS score of each mouse was evaluated at 1, 3, 7, 14 dpi and then weekly until the end of the experiments. The evaluation of BMS score and subscore was always performed by two raters who were blind to the treatment groups and scored hindlimb locomotion for 4 minutes per mouse. If the scores differed between raters, the final score taken was the average of both scores.
To validate the therapeutic effect of Eletriptan Hbr for SCI indication in a non-regenerative model, it was decided to test its efficacy in a SCI rodent model. Therefore, a contusion type of injury was performed in C57BL/6 female mice, using an Infinite Horizon (IH) Impactor and the Basso Mouse Scale (BMS) test^32 was used to evaluate the locomotor performance of the animals after injury. First, mice were habituated to the open-field platform and after 15 days they were injured with a moderate-severe T9 contusion (75 kdyne) (FIG. 2A). Immediately after injury and upon biomechanical exclusion criteria, mice were randomly distributed to each experimental group (SCI+Vehicle and SCI+Eletriptan Hbr). Treatment dosages (Vehicle or Eletriptan Hbr) were administered via intraperitoneal (i.p.) injection, beginning 1 hour-post-injury (1hpi), and then daily until 15 dpi (FIG. 2A). […]

5-HT1B, sequence (P28222 whole entry, species assumed): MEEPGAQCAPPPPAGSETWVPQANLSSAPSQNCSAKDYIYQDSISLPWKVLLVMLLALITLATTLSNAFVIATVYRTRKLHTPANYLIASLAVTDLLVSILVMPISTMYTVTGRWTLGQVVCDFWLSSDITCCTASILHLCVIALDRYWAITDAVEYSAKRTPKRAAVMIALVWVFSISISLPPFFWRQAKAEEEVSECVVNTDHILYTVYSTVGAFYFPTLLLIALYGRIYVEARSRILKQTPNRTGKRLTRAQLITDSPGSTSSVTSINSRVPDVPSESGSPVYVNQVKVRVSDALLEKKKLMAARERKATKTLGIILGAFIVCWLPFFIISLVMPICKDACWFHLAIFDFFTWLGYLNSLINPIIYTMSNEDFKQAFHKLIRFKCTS

## CN1CCC[C@@H]1Cc1c[nH]c2ccc(CCS(=O)(=O)c3ccccc3)cc12 [Eletriptan Hbr, Eletriptan Hydrobromide]
5-HT1B
  affinity: high affinity
[1]; 42 dpi
  animals that acquired a mild trunk stability: 46%
  mice with frequent plantar stepping with parallel placement of both hindlimb paws at initial contact: 85%
  mice with parallel placement of at least one of the hindlimb paws at lift off: 23%
[1]; 42 dpi, observed during BMS testing, vs Vehicle
  events that block the walking movement such as spasms and but downs: less events
[1]; 42 dpi, of thirteen treated mice
  mice that achieved a BMS score of 5 (frequent or consistent plantar stepping): twelve
[1]; 42 dpi, thirteen treated mice
  mice that achieved a BMS score of 6 (frequent plantar stepping with some fore-hindlimb coordination): one out of thirteen
[1]; from 7 to 42 dpi
  average BMS subscores compared to Vehicle-treated mice: consistently higher
[1]; from 35 dpi to 42 dpi
  average BMS subscores compared to Vehicle-treated mice: significantly higher
[1]; i.p. from 1 hpi, daily until 15 dpi
  time at which average BMS scores reached a plateau: 28-35 dpi
[1]; i.p. from 1 hpi, daily until 15 dpi, 1 to 42 dpi
  BMS scores over time compared to Vehicle-treated mice: consistently but not significantly higher

From patent US12605362B2, “Eletriptan hydrobromide for treatment of spinal cord injury and improvement of locomotor function” (TECHNOPHAGE, INVESTIGAÇÃO E DESENVOLVIMENTO EM …, priority 2020, dated 2026)
